For 7 compounds, IC50 results are on record in ChEMBL document CHEMBL1144390, “Equipotent activity in both enantiomers of a series of ketopiperazine-based renin inhibitors” (Bioorg Med Chem Lett, 2005).

Each structure is given as a SMILES string.

The target in the test is T1, Renin (Homo sapiens, UniProt P00797).
T1 sequence (P00797 whole entry): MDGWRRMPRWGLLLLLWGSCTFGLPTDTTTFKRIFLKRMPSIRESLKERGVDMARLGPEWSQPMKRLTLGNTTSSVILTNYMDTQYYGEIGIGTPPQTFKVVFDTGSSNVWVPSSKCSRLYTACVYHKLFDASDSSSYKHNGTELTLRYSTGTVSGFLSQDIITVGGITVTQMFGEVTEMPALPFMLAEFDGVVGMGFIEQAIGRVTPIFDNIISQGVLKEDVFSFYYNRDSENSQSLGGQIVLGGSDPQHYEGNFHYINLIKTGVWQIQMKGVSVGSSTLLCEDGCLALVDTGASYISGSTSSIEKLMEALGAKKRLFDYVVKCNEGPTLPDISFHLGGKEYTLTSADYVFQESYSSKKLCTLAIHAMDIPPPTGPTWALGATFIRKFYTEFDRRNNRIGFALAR
Briefly: Concentration required to inhibit renin activity by 50%.
Broadly, the IC50 is the concentration that gives 50% inhibition. A higher IC50 goes with lower potency. Regarding `COCCCN1C(=O)CCc2ccc(OC[C@@H]3CNCC(=O)N3c3ccc(OCCCOCc4ccccc4OC)cc3)cc21`, the IC50 is 17 nM.
As for `COCCCN1C(=O)CCc2ccc(OC[C@H]3CNCC(=O)N3c3ccc(OCCCOCc4ccccc4OC)cc3)cc21`, 7 nM corresponded to half-maximal inhibition (IC50).
With `COc1ccccc1COCCCOc1ccc(N2C(=O)CNC[C@@H]2COc2ccc3c(c2)NCCC3)cc1` the figure was 120 nM; with `COc1ccccc1COCCCOc1ccc(N2C(=O)CNC[C@H]2COc2ccc3cccnc3c2)cc1`, 860 nM; with `COc1ccccc1COCCCOc1ccc(N2C(=O)CNC[C@H]2COc2ccc3c(c2)N(CCO)CCC3)cc1`, 33 nM.
For `COc1ccccc1COCCCOc1ccc(N2C(=O)CNC[C@H]2COc2ccc3c(c2)NCCC3)cc1`, the half-inhibitory concentration (IC50) came out at 23 nM.
The value for `COc1ccccc1COCCCOc1ccc(N2C(=O)CNC[C@H]2COc2ccc3c(c2)N(CCCO)CCC3)cc1` was 35 nM.
